Tests used:
ALOMY [1] = test: Pre-emergence herbicidal action against ALOMY; type: in vivo, Alopecurus myosuroides; details: 80 g/ha, pre-emergence, scored visually after 3 weeks vs untreated controls (100% = plants have died, 0% = like control plants)
How it was run: (§1)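 Visual rating at 3 weeks vs untreated pots; 0–100% scale, 100% = plants died. Treatment: aqueous WP/EC spray onto covering soil, 600–800 l/ha, 0.2% wetter, seeds in sandy loam.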

ABUTH [2] = test: Pre-emergence herbicidal action against ABUTH; type: in vivo, Abutilon theophrasti; details: for Pre-emergence action against ABUTH (herbicidal activity): 80 g/ha, scored visually after 3 weeks vs untreated controls (100% = plants have died, 0% = like control plants); for Pre-emergence action against ABUTH (herbicidal activity in percent): dosage 20 g/ha, scored visually after 3 weeks vs untreated controls, 100% = plants have died, 0% = like control plants
How it was run: as §1

AMARE [3] = test: Pre-emergence herbicidal action against AMARE; type: in vivo, Amaranthus retroflexus
How it was run: as §1

SETVI [4] = test: Pre-emergence herbicidal action against SETVI; type: in vivo, Setaria viridis; details: dosage 80 g/ha
How it was run: as §1

AMARE [5] = test: Post-emergence herbicidal action against AMARE; type: in vivo, Amaranthus retroflexus; details: 20 g/ha, visual assessment about 3 weeks after treatment, 100% = plants have died, 0% = like control plants
How it was run: (§2)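 Greenhouse pot plants in sandy loam were sprayed at the one-leaf stage, 2 to 3 weeks after sowing, with WP or EC formulations as aqueous suspension or emulsion (600 to 800 l/ha water, 0.2% wetting agent). About 3 weeks later, damage was scored visually against untreated controls as % action (100% = dead, 0% = like control).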

SETVI [6] = test: Post-emergence herbicidal action against SETVI; type: in vivo, Setaria viridis
How it was run: as §2

ABUTH [7] = test: Post-emergence herbicidal action against ABUTH; type: in vivo, Abutilon theophrasti; details: visual assessment about 3 weeks after treatment vs untreated controls
How it was run: as §2

AVEFA [8] = test: Post-emergence herbicidal action against AVEFA; type: in vivo, Avena fatua; details: 20 g/ha, visual assessment about 3 weeks after treatment, 100% = plants have died, 0% = like control plants
Description: Seeds of monocotyledonous and dicotyledonous weed and crop plants are laid out in sandy loam soil in wood-fiber pots, covered with soil and cultivated in a greenhouse under good growth conditions. 2 to 3 weeks after sowing, the test plants are treated at the one-leaf stage. The compounds of the invention, formulated in the form of wettable powders (WP) or as emulsion concentrates (EC), are then sprayed onto the green parts of the plants in the form of an aqueous suspension or emulsion at a water application rate equivalent to 600 to 800 l/ha, with addition of 0.2% wetting agent. After the test plants have been left to stand in the greenhouse under optimal growth conditions for about 3 weeks, the action of the preparations is assessed visually in comparison to untreated controls (herbicidal action in percent (%): 100% activity=the plants have died, 0% activity=like control plants). […] The tables below illustrate, in an illustrative manner, the post-emergence herbicidal action of the compounds of the invention, the herbicidal activity being stated in percent.

VIOTR [9] = test: Pre-emergence herbicidal action against VIOTR; type: in vivo, Viola tricolor
How it was run: as §1

MATIN [10] = test: Pre-emergence herbicidal action against MATIN; type: in vivo, Matricaria inodora
How it was run: as §1

VERPE [11] = test: Pre-emergence herbicidal action against VERPE; type: in vivo, Veronica persica
How it was run: as §1

ECHCG [12] = test: Pre-emergence herbicidal action against ECHCG; type: in vivo, Echinochloa crus-galli; details: 80 g/ha
How it was run: as §1

MATIN [13] = test: Post-emergence herbicidal action against MATIN; type: in vivo, Matricaria inodora
How it was run: as §2

VIOTR [14] = test: Post-emergence herbicidal action against VIOTR; type: in vivo, Viola tricolor
How it was run: as §2

AVEFA [15] = test: Pre-emergence herbicidal action against AVEFA; type: in vivo, Avena fatua; details: 80 g/ha, pre-emergence
How it was run: as §1

PHBPU = test: Post-emergence herbicidal action against PHBPU; type: in vivo, Pharbitis purpurea; details: dosage 20 g/ha
How it was run: as §2

VERPE [16] = test: Post-emergence herbicidal action against VERPE; type: in vivo, Veronica persica
How it was run: as §2

ECHCG [17] = test: Post-emergence herbicidal action against ECHCG; type: in vivo, Echinochloa crus-galli
How it was run: as §2

ALOMY [18] = test: Post-emergence herbicidal action against ALOMY; type: in vivo, Alopecurus myosuroides; details: dosage 20 g/ha, visual assessment about 3 weeks after treatment vs untreated controls
How it was run: as §2

[19] = 20 g/ha, scored visually after 3 weeks vs untreated controls, 100% = plants have died, 0% = like control plants
[20] = 80 g/ha, scored visually after 3 weeks vs untreated controls (100% = plants have died, 0% = like control plants)

Compound | Pre-emergence action against ALOMY (herbicidal activity) (ALOMY [1]) | Pre-emergence action against ABUTH (herbicidal activity) (ABUTH [2]) | Pre-emergence action against ABUTH (herbicidal activity in percent) (ABUTH [2]) | Pre-emergence action against AMARE in % (AMARE [3]; [19]) | Pre-emergence action against AMARE in % (AMARE [3]; [20]) | Pre-emergence action against SETVI in % (SETVI [4]) | Post-emergence action at 20 g/ha against AMARE in % (AMARE [5]) | Post-emergence action against SETVI in % (SETVI [6]; dosage 5 g/ha) | Post-emergence action against SETVI in % (SETVI [6]; dosage 20 g/ha) | Post-emergence action against ABUTH in % (ABUTH [7]; dosage 20 g/ha) | Post-emergence action at 20 g/ha against AVEFA in % (AVEFA [8]) | Pre-emergence action against VIOTR in % (VIOTR [9]; dosage 20 g/ha) | Pre-emergence action against VIOTR in % (VIOTR [9]; dosage 80 g/ha) | Pre-emergence action against MATIN in % (MATIN [10]; dosage 20 g/ha) | Pre-emergence action against MATIN in % (MATIN [10]; dosage 80 g/ha) | Pre-emergence action against VERPE in % (VERPE [11]; dosage 80 g/ha) | Pre-emergence action against ECHCG in % (ECHCG [12]) | Post-emergence action against MATIN in % (MATIN [13]; dosage 5 g/ha) | Post-emergence action against MATIN in % (MATIN [13]; dosage 20 g/ha) | Post-emergence action against VIOTR in % (VIOTR [14]; 5 g/ha) | further results
CSc1c(C(=O)Nc2nnnn2C)ccc(C(F)(F)F)c1C(=O)NC(C)C1CC1 (centres unmarked) [Example 1-352] | 80% | 100% | 100% | 100% | 100% | 100% | 100% | 80% | 100% | 100% | 80% | 100% | 100% | 100% | 100% | 100% | 100% | 80% | 90% | 100% | Pre-emergence action against VERPE in % (VERPE [11]; dosage 20 g/ha): 90%; Post-emergence action against VIOTR in % (VIOTR [14]; 20 g/ha): 100%; Pre-emergence action against AVEFA in % (AVEFA [15]): 80%; Post-emergence action against PHBPU in % (PHBPU): 90%; Post-emergence action against VERPE in % (VERPE [16]; 20 g/ha): 90%; Post-emergence action against ECHCG in % (ECHCG [17]; dosage 5 g/ha): 100%; Post-emergence action against ECHCG in % (ECHCG [17]; dosage 20 g/ha): 100%; Post-emergence action against ALOMY in % (ALOMY [18]): 80%
CCn1nnnc1NC(=O)c1ccc(C(F)F)c(C(=O)NC2CC2)c1SC [Example 2-89] | 100% | 100% | 100% | 90% | 100% | 100% | 100% | 90% | 100% | 90% | 80% | 90% | 100% | 90% | 100% | 90% | 90% | 90% | 90% | 90% | Post-emergence action against ABUTH in % (ABUTH [7]; dosage 5 g/ha): 90%; Post-emergence action against VIOTR in % (VIOTR [14]; 20 g/ha): 90%; Pre-emergence action against AVEFA in % (AVEFA [15]): 90%; Post-emergence action against PHBPU in % (PHBPU): 80%; Post-emergence action against VERPE in % (VERPE [16]; 5 g/ha): 80%; Post-emergence action against VERPE in % (VERPE [16]; 20 g/ha): 90%; Post-emergence action against ECHCG in % (ECHCG [17]; dosage 20 g/ha): 90%; Post-emergence action against ALOMY in % (ALOMY [18]): 90%

Source: patent US12655116B2, “Substituted isophthalic acid diamides” (Bayer Aktiengesellschaft, priority 2020, dated 2026)
